According to US12351571B2, “Substituted quinoxaline compounds as inhibitors of FGFR tyrosine kinases” (ARRAY BIOPHARMA INC., priority 2018, dated 2025):

How the values were obtained:
[1] = target: dephosphorylated FGFR2 (Homo sapiens (Human), UniProt P21802); experiment: FGFR Enzyme Binding Assay (HTRF tracer displacement), FGFR2; conditions: 5 nM dephosphorylated FGFR2, 60 minute incubation at 22° C.; read-out: FGFR2 Enz Binding IC50
Protocol: The potency of compounds inhibiting human isoforms of FGFR kinase was determined using Life Technologies' Homogeneous Time Resolved Fluorescence (HTRF)-based binding assay technology. An incubation was conducted with either 5 nM dephosphorylated FGFR1 (Array Biopharma, p1702; SEQ ID NO: 1, amino acids 458 to 765, dephosphorylated by co-expression with PTP1b (protein tyrosine phosphatase 1B)), 5 nM dephosphorylated FGFR2 (Life Technologies, Cat. No. PV4106 that had been dephosphorylated with Lambda protein phosphatase (New England Biolabs, cat #P0753)) or 5 nM phosphorylated FGFR3 (Array Biopharma, p1836; SEQ ID NO: 5, amino acids 449 to 759), 50 nM Kinase Tracer 236 (Life Technologies Cat. No. PR9078A), 2 nM Biotin-anti-6HIS (Life Technologies Cat. No. PV6090) and 2 nM Europium-Streptavidin (Life Technologies Cat. No. PV6025) along with test compound in a buffer consisting of 50 mM HEPES ((4-(2-hydroxyethyl)-1-piperazineethanesulfonic acid, pH 7.5), 5 mM MgCl2, 0.005% Triton X-100, 1 mM DTT, 1 mM NaVO4 and 2% DMSO in a final volume of 12 μL Compounds were typically prepared as a 3-fold or 4-fold serial dilution in DMSO and added to the assay to give the appropriate final concentration. After a 60 minute incubation at 22° C., the extent of tracer displacement was determined using a PerkinElmer EnVision multimode plate reader via HTRF dual wavelength detection, and the percent of control (POC) was calculated using a ratiometric emission factor. One hundred POC was determined using no test compound, and 0 POC was determined in the presence of 1 μM of an appropriate control inhibitor. A 4-parameter logistic curve was fit to the POC values as a function of the concentration of compound, and the IC50 value was the point where the best-fit curve crossed 50 POC.

[2] = target: human wild type FGFR2 (Homo sapiens (Human), UniProt P21802); experiment: FGFR2 pFGFR Cell Assay; type: cell-based; conditions: HEK-293 cells, 1 hour compound, 30 ng/ml human FGF-acidic, ELISA
Chain of human wild type FGFR2 (P21802 22-821): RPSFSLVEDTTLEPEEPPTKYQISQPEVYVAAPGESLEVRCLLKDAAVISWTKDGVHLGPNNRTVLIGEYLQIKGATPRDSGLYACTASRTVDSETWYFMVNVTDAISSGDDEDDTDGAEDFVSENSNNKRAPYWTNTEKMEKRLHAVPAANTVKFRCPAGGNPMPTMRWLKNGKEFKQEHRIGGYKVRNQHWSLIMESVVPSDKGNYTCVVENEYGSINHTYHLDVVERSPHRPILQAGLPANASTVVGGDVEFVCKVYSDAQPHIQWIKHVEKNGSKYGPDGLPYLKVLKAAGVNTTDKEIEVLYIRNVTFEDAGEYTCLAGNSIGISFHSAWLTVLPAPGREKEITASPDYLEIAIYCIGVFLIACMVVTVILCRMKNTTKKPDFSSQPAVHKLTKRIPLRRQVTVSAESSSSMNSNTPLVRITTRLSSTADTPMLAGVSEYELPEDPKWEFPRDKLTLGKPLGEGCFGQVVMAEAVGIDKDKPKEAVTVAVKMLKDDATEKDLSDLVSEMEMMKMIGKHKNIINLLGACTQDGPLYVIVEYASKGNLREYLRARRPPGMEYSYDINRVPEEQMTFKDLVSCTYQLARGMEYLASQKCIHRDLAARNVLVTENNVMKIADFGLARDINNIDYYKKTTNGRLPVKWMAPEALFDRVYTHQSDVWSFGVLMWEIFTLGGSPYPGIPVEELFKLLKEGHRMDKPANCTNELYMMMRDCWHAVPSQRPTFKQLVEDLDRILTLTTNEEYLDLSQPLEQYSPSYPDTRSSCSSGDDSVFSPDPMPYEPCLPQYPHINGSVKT
Protocol: (§1) HEK-293 cells transfected with dox-inducible human wild type FGFR2 (SEQ ID NO: 3) were plated in a collagen or poly-D-lysine coated 96 well flat bottom plates at 4×10^5 cells/well in complete DMEM medium containing 10% FBS and 1 μg/ml doxycycline and allowed to attach for 24 h at 37° C., 5% CO2. Cells were treated with compound using 1:3 serial dilutions with a maximum final concentration of 5 μM. Compound was incubated on cells for 1 hour at 37° C., 5% CO2. Cells were then stimulated with a final concentration of 30 ng/ml human FGF-acidic (R&D Systems Cat number 232-FA/CF) for 5 minutes at 37° C., 5% CO2. Medium was removed and cells were lysed with lysis buffer containing phosphatase and protease inhibitors. Phospho FGFR2 was measured by ELISA (R&D Systems cat. no. DYC684). The ELISA captures total FGFR2 and detects total phospho tyrosine. Optical density was measured for each well using a Versamax reader at a wavelength of 450 nm. 100 POC was determined using no test compounds and 0 POC was determined using a control compound. The POC values were fit to a 4-parameter logistic curve as a function of the concentration of the compound, and the IC50 value is the point where the curve crosses 50 POC.

[3] = target: human wild type FGFR3 (Homo sapiens (Human), UniProt P22607); experiment: FGFR3 pFGFR Cell Assay; type: cell-based; conditions: HEK-293 cells, 1 hour compound, 100 ng/ml human FGF-acidic, ELISA
Chain of human wild type FGFR3 (P22607 23-806): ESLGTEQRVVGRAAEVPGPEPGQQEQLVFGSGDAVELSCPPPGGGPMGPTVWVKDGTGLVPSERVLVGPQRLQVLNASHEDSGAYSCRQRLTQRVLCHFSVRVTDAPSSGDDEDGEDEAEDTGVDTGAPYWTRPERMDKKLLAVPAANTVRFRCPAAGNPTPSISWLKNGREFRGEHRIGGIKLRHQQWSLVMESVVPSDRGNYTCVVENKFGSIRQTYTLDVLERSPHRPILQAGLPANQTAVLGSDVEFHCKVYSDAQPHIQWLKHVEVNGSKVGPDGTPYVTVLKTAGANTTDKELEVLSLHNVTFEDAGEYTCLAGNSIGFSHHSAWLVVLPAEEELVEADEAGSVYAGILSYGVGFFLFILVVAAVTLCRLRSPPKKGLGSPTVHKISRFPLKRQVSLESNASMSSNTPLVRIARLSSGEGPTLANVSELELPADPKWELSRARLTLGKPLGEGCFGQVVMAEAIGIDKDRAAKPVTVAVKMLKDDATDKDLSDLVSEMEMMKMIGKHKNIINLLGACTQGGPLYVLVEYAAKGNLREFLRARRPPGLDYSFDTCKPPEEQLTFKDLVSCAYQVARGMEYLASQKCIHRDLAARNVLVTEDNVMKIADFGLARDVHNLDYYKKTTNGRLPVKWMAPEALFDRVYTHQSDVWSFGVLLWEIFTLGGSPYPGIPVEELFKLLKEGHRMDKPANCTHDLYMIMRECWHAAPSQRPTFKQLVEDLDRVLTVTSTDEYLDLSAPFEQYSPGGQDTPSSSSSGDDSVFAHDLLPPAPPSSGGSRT
Protocol: as §1, with “FGFR3” for “FGFR2”, “5)” for “3)”, “top” for “maximum”, “100” for “30”, “FGF-acidic” for “FGF-acidic (R&D Systems Cat number 232-FA/CF)”, “cat DYC2719).” for “cat. no. DYC684).”

Chain of dephosphorylated FGFR2 (P21802 22-821): as the sequence (P21802 22-821) above

| SMILES | IC50 [1] | IC50 [2] | IC50 [3] |
| --- | --- | --- | --- |
| COc1cc(Nc2ccc3ncc(-c4c(C)nn(C5CCN(C(=O)C6(F)CN(C(=O)/C=C/CN(C)C)C6)CC5)c4C)nc3c2)cc(OC)c1 [Example 23, (E)-1-(3-(4-(4-(7-((3,5-dimethoxyphenyl)amino)-quinoxalin-2-yl)-3,5-dimethyl-1H-pyrazol-1-yl)piperidine-1-carbonyl)-3-fluoroazetidin-1-yl)-4-(dimethylamino)but-2-en-1-one] | 38 nM |  |  |
| COc1cc(Nc2ccc3ncc(-c4ccc(N5CCN(C(=O)C6(F)CN(C(=O)/C=C/CN(C)C)C6)CC5)nc4)nc3c2)cc(OC)c1 [Example 7, (E)-1-(3-(4-(5-(7-((3,5-dimethoxyphenyl)amino)-quinoxalin-2-yl)pyridin-2-yl)piperazine-1-carbonyl)-3-fluoroazetidin-1-yl)-4-(dimethylamino)but-2-en-1-one] | 18 nM | 182 nM |  |
| C=CC(=O)N1CC(OC)(C(=O)N2CCC(n3cc(-c4cnc5ccc(Nc6cc(OC)cc(OC)c6)cc5n4)cn3)CC2)C1 [Example 24, 1-(3-(4-(4-(7-((3,5-dimethoxyphenyl)amino)-quinoxalin-2-yl)-1H-pyrazol-1-yl)piperidine-1-carbonyl)-3-methoxy-azetidin-1-yl)prop-2-en-1-one] | 8 nM | 49 nM |  |
| COc1cc(Nc2ccc3ncc(-c4cnn(C5CCN(C(=O)C6(F)CN(C(=O)/C=C/CN(C)C)C6)CC5)c4C)nc3c2)cc(OC)c1 [Example 17, (E)-1-(3-(4-(4-(7-((3,5-dimethoxyphenyl)amino)-quinoxalin-2-yl)-5-methyl-1H-pyrazol-1-yl)piperi-dine-1-carbonyl)-3-fluoroazetidin-1-yl)-4-(dimethylamino)but-2-en-1-one] |  | 170 nM |  |
| C=CC(=O)N1CC(C(=O)N2CCN(c3cccc(-c4cnc5ccc(Nc6cc(OC)cc(OC)c6)cc5n4)c3)CC2)C1 [Example 25, 1-(3-(4-(3-(7-((3,5-dimethoxyphenyl)amino)-quinoxalin-2-yl)phenyl)-piperazine-1-carbonyl)-azetidin-1-yl)prop-2-en-1-one] | 157 nM |  |  |
| C=CC(=O)N1CC(C(=O)N2CCN(c3ccc(-c4cnc5ccc(Nc6cc(OC)cc(OC)c6)cc5n4)cn3)CC2)C1 [Example 5, 1-(3-(4-(5-(7-((3,5-dimethoxyphenyl)amino)-quinoxalin-2-yl)pyridin-2-yl)piperazine-1-carbonyl)azetidin-1-yl)-prop-2-en-1-one] |  | 486 nM |  |
| C=CC(=O)N1CC(CN2CCC(n3cc(-c4cnc5ccc(Nc6cc(OC)cc(OC)c6)cc5n4)cn3)CC2)(OC)C1 [Example 29, 1-(3-((4-(4-(7-((3,5-dimethoxyphenyl)amino)quinoxalin-2-yl)-1H-pyrazol-1-yl)piperidin-1-yl)methyl)-3-methoxyazetidin-1-yl)prop-2-en-1-one] | 5 nM | 56 nM |  |
| COc1cc(Nc2ccc3ncc(-c4cnn(C5CCN(C(=O)C6(F)CN(C(=O)/C=C/CN(C)C)C6)CC5)c4)nc3c2)cc(OC)c1 [Example 10, (E)-1-(3-(4-(4-(7-((3,5-dimethoxyphenyl)amino)-quinoxalin-2-yl)-1H-pyrazol-1-yl)piperidine-1-carbonyl)-3-fluoro-azetidin-1-yl)-4-(dimethylamino)but-2-en-1-one] | 6 nM | 28 nM |  |
| COc1cc(Nc2ccc3ncc(-c4cnc(N5CCN(C(=O)C6(F)CN(C(=O)/C=C/CN(C)C)C6)CC5)cc4C)nc3c2)cc(OC)c1 [Example 14, (E)-1-(3-(4-(5-(7-((3,5-dimethoxyphenyl)amino)-quinoxalin-2-yl)-4-methylpyridin-2-yl)-piperazine-1-carbonyl)-3-fluoroazetidin-1-yl)-4-(dimethylamino)but-2-en-1-one] | 290 nM |  |  |
| COc1cc(Nc2ccc3ncc(-c4ccc(N5CCN(C(=O)C6CN(C(=O)/C=C/CN(C)C)C6)CC5)nc4)nc3c2)cc(OC)c1 [Example 6, (E)-1-(3-(4-(5-(7-((3,5-dimethoxyphenyl)amino)-quinoxalin-2-yl)pyridin-2-yl)piperazine-1-carbonyl)azetidin-1-yl)-4-(dimethylamino)but-2-en-1-one] | 14 nM |  |  |
| COc1cc(Nc2ccc3ncc(-c4cn(C5CCN(C(=O)C6(F)CN(C(=O)/C=C/CN(C)C)C6)CC5)nc4C)nc3c2)cc(OC)c1 [Example 22, (E)-1-(3-(4-(4-(7-((3,5-dimethoxyphenyl)amino)-quinoxalin-2-yl)-3-methyl-1H-pyrazol-1-yl)-piperidine-1-carbonyl)-3-fluoroazetidin-1-yl)-4-(dimethylamino)but-2-en-1-one] | 19 nM | 301 nM |  |

More lines, in order of falling IC50 [1], values ahead:

| IC50 [1] | IC50 [2] | IC50 [3] | SMILES |
| --- | --- | --- | --- |
| 5 nM | 69 nM | 89 nM | C=CC(=O)N1CCC(C(=O)N2CCC(n3cc(-c4cnc5ccc(Nc6cc(OC)cc(OC)c6)cc5n4)cn3)CC2)CC1 [Example 3, 1-(4-(4-(4-(7-((3,5-dimethoxyphenyl)amino)-quinoxalin-2-yl)-1H-pyrazol-1-yl)piperidine-1-carbonyl)piperidin-1-yl)prop-2-en-1-one] |
| 5 nM |  |  | C=CC(=O)N1CC(O)(C(=O)N2CCC(n3cc(-c4cnc5ccc(Nc6cc(OC)cc(OC)c6)cc5n4)cn3)CC2)C1 [Example 26, 1-(3-(4-(4-(7-((3,5-dimethoxyphenyl)amino)quinoxalin-2-yl)-1H-pyrazol-1-yl)piperidine-1-carbonyl)-3-hydroxyazetidin-1-yl)prop-2-en-1-one] |
| 5 nM | 62 nM |  | C=CC(=O)N1CC(CN2CCC(n3cc(-c4cnc5ccc(Nc6cc(OC)cc(OC)c6)cc5n4)cn3)CC2)C1 [Example 30, 1-(3-((4-(4-(7-((3,5-dimethoxyphenyl)amino)quinoxalin-2-yl)-1H-pyrazol-1-yl)piperidin-1-yl)methyl)azetidin-1-yl)prop-2-en-1-one] |
| 4 nM |  | 17 nM | C=CC(=O)N1CC(F)(C(=O)N2CCC(n3cc(-c4cnc5ccc(Nc6cc(OC)cc(OC)c6)cc5n4)cn3)CC2)C1 [Example 4, 1-(3-(4-(4-(7-((3,5-dimethoxyphenyl)amino)-quinoxalin-2-yl)-1H-pyrazol-1-yl)piperidine-1-carbonyl)-3-fluoro-azetidin-1-yl)prop-2-en-1-one] |
| 3 nM | 6 nM |  | C#CCN(c1cc(OC)cc(OC)c1)c1ccc2ncc(-c3cnn(C4CCN(C(=O)C5(F)CN(C(=O)/C=C/CN(C)C)C5)CC4)c3)nc2c1 [Example 28, (E)-1-(3-(4-(4-(7-((3,5-dimethoxyphenyl)(prop-2-yn-1-yl)amino)quinoxalin-2-yl)-1H-pyrazol-1-yl)piperidine-1-carbonyl)-3-fluoroazetidin-1-yl)-4-(dimethylamino)but-2-en-1-one] |
| 3 nM | 37 nM |  | C=CC(=O)N1CC(O)(C(=O)N2CCC(n3cc(-c4cnc5ccc(N(C)c6cc(OC)cc(OC)c6)cc5n4)cn3)CC2)C1 [Example 27, 1-(3-(4-(4-(7-((3,5-dimethoxyphenyl)(methyl)amino)quinoxalin-2-yl)-1H-pyrazol-1-yl)piperidine-1-carbonyl)-3-hydroxyazetidin-1-yl)prop-2-en-1-one] |
